From patent publication US20250195536A1, “BICYCLOOCTANE KRAS INHIBITORS” (Incyte Corporation, priority 2023, published 2025)

Experiments:
[1] = Caco2 assay (permeability, Papp A-B); type: in vitro ADME; conditions: human, Caco-2, absorptive direction (A-B), 50 μM test compound, 4% BSA in receiver
How it was run: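 Absorptive (A-B) Papp: 50 μM test compound in HBSS added to apical side of 22-25-day Caco-2 monolayers (TEER 300 Ω·cm^2), receiver buffer containing 4% BSA. After 120 min at 37 °C, 5% CO2, both sides analysed by LCMS; Papp calculated from flux rate normalized to area and donor amount.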

KRAS G12D = KRAS G12D (Homo sapiens, UniProt P01116, G12D); assay: GDP-GTP exchange assay (KRAS G12D); type: biochemical; conditions: bodipy-GDP/GppNHp exchange with SOS1; 4 h pre-incubation, 2 h reaction;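 note: one dagger IC50 up to 100 nM and two daggers above 100 nM up to 1 μM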
How it was run: (§1)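 IC50 came from a four-parameter fit of fluorescence loss (485/520 nm) as SOS1 (150 nM) swapped bodipy-GDP for GppNHp (500 μM) on 2.5 nM KRAS, final concentrations. Compounds were pre-incubated 4 h at r.t. (pH 7.5 Hepes, 10 mM MgCl2); exchange ran 2 h (G12D) or 3 h (G12V).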

KRAS G12V = KRAS G12V (Homo sapiens, UniProt P01116, G12V); assay: GDP-GTP exchange assay (KRAS G12V); type: biochemical; conditions: bodipy-GDP/GppNHp exchange with SOS1; 3 h incubation after GppNHp-SOS1;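 note: one dagger IC50 up to 100 nM and two daggers above 100 nM up to 1 μM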
How it was run: as §1

Sequence of KRAS G12D (P01116 1-188 isoform P01116-2 G12D): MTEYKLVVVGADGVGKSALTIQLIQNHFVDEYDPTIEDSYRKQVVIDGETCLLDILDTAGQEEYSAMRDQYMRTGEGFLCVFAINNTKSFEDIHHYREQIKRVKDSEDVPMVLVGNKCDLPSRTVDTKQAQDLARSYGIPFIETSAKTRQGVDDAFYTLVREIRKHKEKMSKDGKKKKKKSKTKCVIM
Sequence of KRAS G12V (P01116 1-188 isoform P01116-2 G12V): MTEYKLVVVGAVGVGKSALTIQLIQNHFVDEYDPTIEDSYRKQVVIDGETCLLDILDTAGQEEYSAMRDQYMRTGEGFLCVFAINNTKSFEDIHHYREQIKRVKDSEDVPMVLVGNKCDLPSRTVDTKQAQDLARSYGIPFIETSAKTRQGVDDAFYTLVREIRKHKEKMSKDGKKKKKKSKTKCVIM

| SMILES | Papp A→B at 120 min, 50 μM [1] | G12D_exchange (KRAS_G12D exchange assay IC50) (KRAS G12D) | G12V_exchange (KRAS_G12V exchange assay IC50) (KRAS G12V) |
| --- | --- | --- | --- |
| Cc1nc2c(F)c(-c3cccc(Cl)c3Cl)c(CCC#N)cc2c2c1cc([C@H]1[C@H]3C[C@H](CN(c4ccn(C(C)C)c(=O)c4)C3)N1C(=O)C1CC1)n2[C@H]1[C@H]2CN[C@@H]1C2 (atropisomer, axis not shown; (Ra)) [Example 68, 3-((Ra)-1-((1R,4R,5S)-2-azabicyclo[2.1.1]hexan-5-yl)-2-((1S,5R,7R)-6-(cyclopropanecarbonyl)-3-(1-isopropyl-2-oxo-1,2-dihydropyridin-4-yl)-3,6-diazabicyclo[3.2.1]octan-7-yl)-7-(2,3-dichlorophenyl)-6-fluoro-4-methyl-1H-pyrrolo[3,2-c]quinolin-8-yl)propanenitrile] | ≤ 0.5 ×10⁻⁶ cm/s | † | † |
| Cc1nc2c(F)c(-c3cccc(Cl)c3Cl)c(CCC#N)cc2c2c1cc([C@H]1[C@H]3C[C@H](CN(c4cc(=O)n(C)cn4)C3)N1C(=O)C1CC1)n2[C@H]1[C@H]2CN[C@@H]1C2 (atropisomer, axis not shown; (Ra)) [Example 69, 3-((Ra)-1-((1R,4R,5S)-2-azabicyclo[2.1.1]hexan-5-yl)-2-((1S,5R,7R)-6-(cyclopropanecarbonyl)-3-(1-methyl-6-oxo-1,6-dihydropyrimidin-4-yl)-3,6-diazabicyclo[3.2.1]octan-7-yl)-7-(2,3-dichlorophenyl)-6-fluoro-4-methyl-1H-pyrrolo[3,2-c]quinolin-8-yl)propanenitrile] | ≤ 0.5 ×10⁻⁶ cm/s | † | † |
| Cc1nc2c(F)c(-c3cccc(Cl)c3Cl)c(CCC#N)cc2c2c1cc([C@H]1[C@H]3C[C@H](CN(c4ccn5cc(C(F)(F)F)nc5c4)C3)N1C(=O)C1CC1)n2[C@H]1[C@H]2CN[C@@H]1C2 (atropisomer, axis not shown; (Ra)) [Example 70, 3-((Ra)-1-((1R,4R,5S)-2-azabicyclo[2.1.1]hexan-5-yl)-2-((1S,5R,7R)-6-(cyclopropanecarbonyl)-3-(2-(trifluoromethyl)imidazo[1,2-a]pyridin-7-yl)-3,6-diazabicyclo[3.2.1]octan-7-yl)-7-(2,3-dichlorophenyl)-6-fluoro-4-methyl-1H-pyrrolo[3,2-c]quinolin-8-yl)propanenitrile] | ≤ 0.5 ×10⁻⁶ cm/s | † | † |
| Cc1nc2c(F)c(-c3cccc(Cl)c3Cl)c(CCC#N)cc2c2c1cc([C@H]1[C@H]3C[C@H](CN(c4ccn5nccc5c4)C3)N1C(=O)C1CC1)n2[C@H]1[C@H]2CN[C@@H]1C2 (atropisomer, axis not shown; (Ra)) [Example 71, 3-((Ra)-1-((1R,4R,5S)-2-azabicyclo[2.1.1]hexan-5-yl)-2-((1S,5R,7R)-6-(cyclopropanecarbonyl)-3-(pyrazolo[1,5-a]pyridin-5-yl)-3,6-diazabicyclo[3.2.1]octan-7-yl)-7-(2,3-dichlorophenyl)-6-fluoro-4-methyl-1H-pyrrolo[3,2-c]quinolin-8-yl)propanenitrile] | ≤ 0.5 ×10⁻⁶ cm/s | † | † |
| Cc1nc2c(F)c(-c3cccc(Cl)c3Cl)c(CCC#N)cc2c2c1cc([C@H]1[C@H]3C[C@H](CN(c4ccn5ncnc5c4)C3)N1C(=O)C1CC1)n2[C@H]1[C@H]2CN[C@@H]1C2 (atropisomer, axis not shown; (Ra)) [Example 72, 3-((Ra)-2-((1S,5R,7R)-3-([1,2,4]triazolo[1,5-a]pyridin-7-yl)-6-(cyclopropanecarbonyl)-3,6-diazabicyclo[3.2.1]octan-7-yl)-1-((1R,4R,5S)-2-azabicyclo[2.1.1]hexan-5-yl)-7-(2,3-dichlorophenyl)-6-fluoro-4-methyl-1H-pyrrolo[3,2-c]quinolin-8-yl) propanenitrile] | ≤ 0.5 ×10⁻⁶ cm/s | † | † |
| Cc1nc2c(F)c(-c3cccc(Cl)c3Cl)c(CCC#N)cc2c2c1cc([C@H]1[C@H]3C[C@H](CN(c4ccoc(=O)c4)C3)N1C(=O)C1CC1)n2[C@H]1[C@H]2CN[C@@H]1C2 (atropisomer, axis not shown; (Ra)) [Example 73, 3-((Ra)-1-((1R,4R,5S)-2-azabicyclo[2.1.1]hexan-5-yl)-2-((1S,5R,7R)-6-(cyclopropanecarbonyl)-3-(2-oxo-2H-pyran-4-yl)-3,6-diazabicyclo[3.2.1]octan-7-yl)-7-(2,3-dichlorophenyl)-6-fluoro-4-methyl-1H-pyrrolo[3,2-c]quinolin-8-yl)propanenitrile] | ≤ 0.5 ×10⁻⁶ cm/s | † | † |
| Cc1nc2c(F)c(-c3cccc(Cl)c3Cl)c(CCC#N)cc2c2c1cc([C@H]1[C@H]3C[C@H](CN(c4ccnc(Br)c4)C3)N1C(=O)C1CC1)n2[C@H]1[C@H]2CN[C@@H]1C2 (atropisomer, axis not shown; (Ra)) [Example 74, 3-((Ra)-1-((1R,4R,5S)-2-azabicyclo[2.1.1]hexan-5-yl)-2-((1S,5R,7R)-3-(2-bromopyridin-4-yl)-6-(cyclopropanecarbonyl)-3,6-diazabicyclo[3.2.1]octan-7-yl)-7-(2,3-dichlorophenyl)-6-fluoro-4-methyl-1H-pyrrolo[3,2-c]quinolin-8-yl)propanenitrile] | ≤ 0.5 ×10⁻⁶ cm/s | † | † |
| Cc1c(N2C[C@@H]3C[C@H](C2)N(C(=O)C2CC2)[C@H]3c2cc3c(C)nc4c(F)c(-c5cccc(Cl)c5Cl)c(CCC#N)cc4c3n2[C@H]2[C@H]3CN[C@@H]2C3)ccnc1F (atropisomer, axis not shown; (Ra)) [Example 76, 3-((Ra)-1-((1R,4R,5S)-2-azabicyclo[2.1.1]hexan-5-yl)-2-((1S,5R,7R)-6-(cyclopropanecarbonyl)-3-(2-fluoro-3-methylpyridin-4-yl)-3,6-diazabicyclo[3.2.1]octan-7-yl)-7-(2,3-dichlorophenyl)-6-fluoro-4-methyl-1H-pyrrolo[3,2-c]quinolin-8-yl)propanenitrile] | 0.5 to 1 ×10⁻⁶ cm/s | † | † |
| COc1cc(N2C[C@@H]3C[C@H](C2)N(C(=O)C2CC2)[C@H]3c2cc3c(C)nc4c(F)c(-c5cccc(Cl)c5Cl)c(CCC#N)cc4c3n2[C@H]2[C@H]3CN[C@@H]2C3)cc(C)n1 (atropisomer, axis not shown; (Ra)) [Example 78, 3-((Ra)-1-((1R,4R,5S)-2-azabicyclo[2.1.1]hexan-5-yl)-2-((1S,5R,7R)-6-(cyclopropanecarbonyl)-3-(2-methoxy-6-methylpyridin-4-yl)-3,6-diazabicyclo[3.2.1]octan-7-yl)-7-(2,3-dichlorophenyl)-6-fluoro-4-methyl-1H-pyrrolo[3,2-c]quinolin-8-yl)propanenitrile] | ≤ 0.5 ×10⁻⁶ cm/s | † | † |
| Cc1cc(N2C[C@@H]3C[C@H](C2)N(C(=O)C2CC2)[C@H]3c2cc3c(C)nc4c(F)c(-c5cccc(Cl)c5Cl)c(CCC#N)cc4c3n2[C@H]2[C@H]3CN[C@@H]2C3)cc(F)n1 (atropisomer, axis not shown; (Ra)) [Example 79, 3-((Ra)-1-((1R,4R,5S)-2-azabicyclo[2.1.1]hexan-5-yl)-2-((1S,5R,7R)-6-(cyclopropanecarbonyl)-3-(2-fluoro-6-methylpyridin-4-yl)-3,6-diazabicyclo[3.2.1]octan-7-yl)-7-(2,3-dichlorophenyl)-6-fluoro-4-methyl-1H-pyrrolo[3,2-c]quinolin-8-yl)propanenitrile] | ≤ 0.5 ×10⁻⁶ cm/s | † | † |
| Cc1cc(N2C[C@@H]3C[C@H](C2)N(C(=O)C2CC2)[C@H]3c2cc3c(C)nc4c(F)c(-c5cccc(Cl)c5Cl)c(CCC#N)cc4c3n2[C@H]2[C@H]3CN[C@@H]2C3)cc(=O)o1 (atropisomer, axis not shown; (Ra)) [Example 80] | ≤ 0.5 ×10⁻⁶ cm/s | † | † |
| CCOc1cc(N2C[C@@H]3C[C@H](C2)N(C(=O)C2CC2)[C@H]3c2cc3c(C)nc4c(F)c(-c5cccc(Cl)c5Cl)c(CCC#N)cc4c3n2[C@H]2[C@H]3CN[C@@H]2C3)ccn1 (atropisomer, axis not shown; (Ra)) [Example 81, 3-((Ra)-1-((1R,4R,5S)-2-azabicyclo[2.1.1]hexan-5-yl)-2-((1S,5R,7R)-6-(cyclopropanecarbonyl)-3-(2-ethoxypyridin-4-yl)-3,6-diazabicyclo[3.2.1]octan-7-yl)-7-(2,3-dichlorophenyl)-6-fluoro-4-methyl-1H-pyrrolo[3,2-c]quinolin-8-yl)propanenitrile] | ≤ 0.5 ×10⁻⁶ cm/s | † | † |
| COCCOc1cc(N2C[C@@H]3C[C@H](C2)N(C(=O)C2CC2)[C@H]3c2cc3c(C)nc4c(F)c(-c5cccc(Cl)c5Cl)c(CCC#N)cc4c3n2[C@H]2[C@H]3CN[C@@H]2C3)ccn1 (atropisomer, axis not shown; (Ra)) [Example 83, 3-((Ra)-1-((1R,4R,5S)-2-azabicyclo[2.1.1]hexan-5-yl)-2-((1S,5R,7R)-6-(cyclopropanecarbonyl)-3-(2-(2-methoxyethoxy)pyridin-4-yl)-3,6-diazabicyclo[3.2.1]octan-7-yl)-7-(2,3-dichlorophenyl)-6-fluoro-4-methyl-1H-pyrrolo[3,2-c]quinolin-8-yl)propanenitrile] | ≤ 0.5 ×10⁻⁶ cm/s | † | † |
